Our source for the IC50 and melting point values is patent US20050119304A1, “Urea derivatives” (priority 2001, published 2005).

In one data set the target is T1, human VR1 (Homo sapiens, UniProt Q8NER1).
T1 construct: The cloned hVR1 cDNA was constructed with pcDNA3 vector and transfected into a CHOluc9aeq cell line; expressed in transfected cells
The data set is described as follows: Capsaicin-induced Ca2+ influx in the human VR1-transfected CHO cell line (Assay 1). It counts as cell-based. To be noted: read-out: hVR1 class. The text has this: [Measurement of Capsaicin-Induced Ca^2+ Influx in the Human VR1-Transfected CHO Cell Line] (Assay 1)
(1) Establishment of the Human VR1-CHOluc9aeq Cell Line
Human vanilloid receptor (hVR1) cDNA was cloned from libraries of axotomized dorsal root ganglia (WO2000/29577). The cloned hVR1 cDNA was constructed with pcDNA3 vector and transfected into a CHOluc9aeq cell line. The cell line contains aequorin and CRE-luciferase reporter genes as read-out signals. The transfectants were cloned by limiting dilution in selection medium (DMEM/F12. medium (Gibco BRL) supplemented with 10% FCS, 1.4 mM Sodium pyruvate, 20 mM HEPES, 0.15% Sodium bicarbonate, 100 U/ml penicillin, 100 μg/ml strept mycin, 2 mM glutamine, non-essential amino acids and 2 mg/ml G418). Ca^2+ influx was examined in the capsaicin-stimulated clones. A high responder clone was selected and used for further experiments in the project. The human VR1-CHOluc9aeq cells were maintained in the selection medium and passaged every 3-4 days at 1-2.5×10^5 cells/flask ([…]).
(2) Measurement of Ca^2+ Influx Using FDSS-3000
Human VR1-CHOluc9aeq cells were suspended in a culture medium which is the same as the selection medium except for G418 and seeded at a density of 1,000 cells per well into 384-well plates (black walled clear-base/Nalge Nunc International). Following the culture for 48 hrs the medium was changed to 2 μM Fluo-3 AM (Molecular Probes) and 0.02% Puronic F-127 in assay buffer (Hank's balanced salt solution (HBSS), 17 mM HEPES (pH7.4), 1 mM Probenecid, 0.1% BSA) and the cells were incubated for 60 min at 25° C. After washing twice with assay buffer the cells were incubated with a test compound or vehicle for 20 min at 25° C. Mobilization of cytoplasmic Ca^2+ was measured by FDSS-3000 (λex=488 nm, λem=540 nm/Hamamatsu Photonics) for 60 sec after the stimulation with 10 nM capsaicin. Integral R was calculated and compared with controls.
The data corresponds to the compounds as yielded by solid phase synthesis and thus to levels of purity of about 40 to 90%.

T1 sequence (Q8NER1 whole entry): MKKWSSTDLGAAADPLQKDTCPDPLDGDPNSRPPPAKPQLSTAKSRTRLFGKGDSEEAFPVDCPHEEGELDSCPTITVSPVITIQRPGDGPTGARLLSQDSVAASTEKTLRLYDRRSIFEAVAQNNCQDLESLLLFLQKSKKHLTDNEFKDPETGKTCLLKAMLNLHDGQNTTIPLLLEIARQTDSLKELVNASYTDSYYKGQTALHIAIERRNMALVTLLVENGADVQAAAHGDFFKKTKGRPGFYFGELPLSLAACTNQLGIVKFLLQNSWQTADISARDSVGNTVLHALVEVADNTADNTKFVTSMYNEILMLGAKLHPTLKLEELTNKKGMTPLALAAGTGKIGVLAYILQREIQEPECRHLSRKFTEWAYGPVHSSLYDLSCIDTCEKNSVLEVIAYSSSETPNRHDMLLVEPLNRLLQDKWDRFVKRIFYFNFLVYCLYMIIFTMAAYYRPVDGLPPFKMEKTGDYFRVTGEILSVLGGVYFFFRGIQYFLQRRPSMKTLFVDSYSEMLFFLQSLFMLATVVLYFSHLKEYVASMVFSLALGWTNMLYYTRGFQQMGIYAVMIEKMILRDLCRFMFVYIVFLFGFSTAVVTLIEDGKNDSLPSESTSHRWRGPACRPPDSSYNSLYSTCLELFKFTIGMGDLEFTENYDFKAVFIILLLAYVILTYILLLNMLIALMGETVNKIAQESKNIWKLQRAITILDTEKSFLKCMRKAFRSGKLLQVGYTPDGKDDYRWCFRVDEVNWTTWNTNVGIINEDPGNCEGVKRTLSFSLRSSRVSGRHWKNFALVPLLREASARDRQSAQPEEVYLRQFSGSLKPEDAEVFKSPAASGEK

In general, melting point refers to the temperature of the solid-liquid transition. Regarding `COc1cccc(NC(=O)Nc2ccc3[nH]ccc3c2)c1` [Example 73], the melting point lay in the range of 227 to 229 °C. The IC50 at human VR1 was 500 to 1000 nM.
The matching figures for `O=C(Nc1ccc(Br)cc1)Nc1ccc2[nH]ccc2c1` [Example 74]: more than 250 °C and 500 to 1000 nM.
For `O=C(Nc1ccc(Oc2ccccc2)cc1)Nc1ccc2[nH]c(C(F)(F)F)nc2c1` [Example 75], in that order: 239 to 241 °C and 500 to 1000 nM.
For the molecule `Cc1cccc(NC(=O)Nc2ccc3[nH]c(C(F)(F)F)nc3c2)c1` [Example 76], the melting point was in the range of 245 to 247 °C. Further, the IC50 at human VR1 was in the range of 500 to 1000 nM.
For `CSc1cccc(NC(=O)Nc2ccc3[nH]c(C(F)(F)F)nc3c2)c1` [Example 77], in that order: 226 to 228 °C and 500 to 1000 nM.
The matching figures for `O=C(Nc1ccc(F)cc1)Nc1ccc2[nH]c(C(F)(F)F)nc2c1` [Example 78]: 242 to 243 °C and 500 to 1000 nM.
Turning to `COc1cccc(NC(=O)Nc2ccc3[nH]c(C(F)(F)F)nc3c2)c1` [Example 79], the melting point is 233 to 237 °C. The IC50 on human VR1 lay in the range of 500 to 1000 nM.
For `O=C(Nc1ccc(Br)cc1)Nc1ccc2[nH]c(C(F)(F)F)nc2c1` [Example 80], in that order: more than 250 °C and 500 to 1000 nM.
For `O=C(Nc1ccc(Cl)c(Cl)c1)Nc1ccc2[nH]c(C(F)(F)F)nc2c1` [Example 81], in that order: 240 to 242 °C and 500 to 1000 nM.
`CSc1ccc(NC(=O)Nc2cccc3[nH]ccc23)cc1` [Example 82] had a melting point of 228 to 231 °C. Moreover, on human VR1, the IC50 is 500 to 1000 nM.
As for `CC(=O)c1cccc(NC(=O)Nc2cccc3[nH]ccc23)c1` [Example 83], the melting point fell in the range of 205 to 207 °C. Besides, the IC50 on human VR1 was in the range of 500 to 1000 nM.
For `COc1ccccc1NC(=O)Nc1cccc2[nH]ccc12` [Example 84], in that order: 208 to 209 °C and 500 to 1000 nM.
Consider `CCOC(=O)c1cccc(NC(=O)Nc2cccc3[nH]ccc23)c1` [Example 85], for which the melting point lay within 194 to 196 °C. Further, the IC50 at human VR1 was less than 100 nM.
As to `O=C(Nc1ccccc1-c1ccccc1)Nc1cccc2[nH]ccc12` [Example 86], the melting point fell in the range of 104 to 106 °C. Besides, on human VR1, the IC50 was 500 to 1000 nM.
`O=C(Nc1cccc(Cl)c1)Nc1cccc2[nH]ccc12` [Example 87] displayed a melting point of 238 to 239 °C. For the same molecule, on human VR1, the IC50 fell in the range of 100 to 500 nM.
The matching figures for `O=C(Nc1ccc2ccccc2c1)Nc1cccc2[nH]ccc12` [Example 88]: 242 to 243 °C and 100 to 500 nM.
On to `O=C(NCc1ccc(Br)cc1)Nc1cccc2[nH]ccc12` [Example 89], for which the melting point fell in the range of 199 to 202 °C. Moreover, the IC50 at human VR1 was less than 100 nM.
The matching figures for `O=C(Nc1cccc(F)c1)Nc1cccc2[nH]ccc12` [Example 90]: 225 to 226 °C and 500 to 1000 nM.
The matching figures for `O=C(Nc1ccc(Cl)cc1)Nc1cccc2[nH]ccc12` [Example 91]: 247 to 248 °C and 100 to 500 nM.
Molecule `O=C(Nc1ccc(C(F)(F)F)cc1)Nc1cccc2[nH]ccc12` [Example 92] showed a melting point of 242 to 243 °C. At human VR1, the IC50 lay in the range of 100 to 500 nM.
The matching figures for `O=C(Nc1cc(Cl)cc(Cl)c1)Nc1cccc2[nH]ccc12` [Example 93]: 262 to 263 °C and 100 to 500 nM.
For `O=C(Nc1ccccc1F)Nc1cccc2[nH]ccc12` [Example 94], in that order: 244 to 246 °C and 500 to 1000 nM.
For `O=C(Nc1ccccc1Cl)Nc1cccc2[nH]ccc12` [Example 95], in that order: 244 to 246 °C and 100 to 500 nM.
Take `O=C(Nc1ccc(Cl)c([N+](=O)[O-])c1)Nc1cccc2[nH]ccc12` [Example 96]: the melting point was 233 to 235 °C. Further, the IC50 at human VR1 fell in the range of 100 to 500 nM.
Regarding `O=C(Nc1cc([N+](=O)[O-])ccc1F)Nc1cccc2[nH]ccc12` [Example 97], the melting point is 261 to 263 °C. For the same molecule, the IC50 at human VR1 was 500 to 1000 nM.
`O=C(Nc1ccc(F)c([N+](=O)[O-])c1)Nc1cccc2[nH]ccc12` [Example 98] returned a melting point of 248 to 251 °C. For the same molecule, on human VR1, the IC50 was in the range of 100 to 500 nM.
The matching figures for `O=C(NCc1cccc(F)c1)Nc1cccc2[nH]ccc12` [Example 99]: 190 to 192 °C and 500 to 1000 nM.
`Cc1ccc(CNC(=O)Nc2cccc3[nH]ccc23)cc1` [Example 100]: the melting point was 223 °C. Further, the IC50 on human VR1 was 100 to 500 nM.
For `O=C(NCc1ccccc1Cl)Nc1cccc2[nH]ccc12` [Example 101], in that order: 237 to 238 °C and 100 to 500 nM.
For `COc1ccc(CNC(=O)Nc2cccc3[nH]ccc23)cc1` [Example 102], in that order: 201 to 202 °C and 500 to 1000 nM.
